Results as given in patent US20180117029A1, “Targeting Metabolic Vulnerability in Triple-Negative Breast Cancer” (Beth Israel Deaconess Medical Center, Inc., priority 2016, published 2018).

Legend:
SUM-159PT cells [1] = assay: Fluorescence-based deoxyribonucleoside triphosphate assay in SUM-159PT cells; format: cell-based; settings: for dCTP and dTTP (pyrimidine nucleoside triphosphate) levels, fluorescence-based assay: 0.5 μM doxorubicin or 12.5 μM cisplatin, 10 hours
Protocol: (§1) Deoxyribonucleoside triphosphate assay: Cells were maintained in full growth medium, and fresh medium was added at the time cells were treated with doxorubicin. In some cases, SUM-159PT cells were switched to Ham's F12 medium lacking glutamine. For metabolite extraction, medium was aspirated and ice-cold 60% (v/v) methanol was added. The insoluble material in lysates was pelleted by centrifugation at 10,000 g for 10 min. The resulting metabolite-containing supernatants were evaporated using a refridgerated SpeedVac. Samples were re-suspended in water and deoxyribonucleside triphosphate levels were measured as previously described (12).

SUM-159PT cells [2] = assay: Propidium iodide viability assay in SUM-159PT cells; format: cell-based; settings: for single-agent activity (percentage of dead cells) / sensitization of SUM-159PT cells to doxorubicin (percentage of dead cells): 80 μM PALA; for single-agent activity (percentage of dead cells): 0.3 μM brequinar or 20 μM A771726, without doxorubicin; for sensitization of SUM-159PT cells to doxorubicin (percentage of dead cells): 0.3 μM brequinar or 20 μM A771726 pre-treatment 12 hours
Protocol: Propidium iodide viability assay: Cell viability was assayed with a prodium iodide-based plate reader assay, as previously described (25). Briefly, cells in 96-well plates were treated with a final concentration of 30 μM propidium iodide for 60 minutes at 37° C. The initial fluorescence intensity was measured before digitonin was added to each well at a final concentration of 600 μM. After incubating for 30 minutes at 37° C., the final fluorescence intensity was measured. The fraction of dead cells was calculated by dividing the background-corrected initial fluorescence intensity by the final fluorescence intensity.

[3] = test system: CAD, ERK and S6K1 phosphorylation in SUM-159PT cells; assay: Immunoblotting of CAD, ERK and S6K1 phosphorylation in SUM-159PT cells; format: cell-based
Protocol: (§2) Immunoblotting: Cells were washed with ice-cold PBS and lysed in radioimmunoprecipitation buffer (RIPA; 1% NP-40, 0.5% sodium deoxycholate, 0.1% SDS, 150 mmol/L NaCl, 50 mmol/L Tris-HCl, pH 7.5, protease inhibitor cocktail, 50 nmol/L calyculin A, 1 mmol/L sodium pyrophosphate, and 20 mmol/L sodium fluoride). Cell extracts were cleared by centrifugation and protein concentration was measured with the Bio-Rad DC protein assay. Lysates were then resolved on acrylamide gels by SDS-PAGE and transferred electrophoretically to nitrocellulose membrane (Bio-Rad). Blots were blocked in Tris-buffered saline (TBST) buffer (10 mmol/L Tris-HCl, pH 8, 150 mmol/L NaCl and 0.2% Tween 20) containing 5% (w/v) nonfat dry milk and then incubated with primary antibody overnight. Membranes were incubated with HRP-conjugated secondary antibody and developed using enhanced chemiluminescence substrate (EMD Millipore).

[4] = test system: ovarian cancer cells (OVCAR3, OVCAR8); assay: Viability by propidium iodide uptake in ovarian cancer cells; format: cell-based, human; settings: brequinar pre-treatment 16 h, then doxorubicin 48 hours
Protocol: Since ovarian cancers display an increase in pyrimidine nucleotides following chemotherapy, we investigated the ability of pyrimidine synthesis inhibitors to sensitize these cells to chemotherapy. Cells were treated with varying doses of doxorubicin in combination with the DHODH inhibitor brequinar for 48 hours, and viability measured by propidium iodide uptake. As observed in breast cancer cells, brequinar also sensitized ovarian cancer cells to doxorubicin (FIGS. 8A-B).

[5] = test system: human ovarian cancer cell lines (Karumochi, Ovcar3, Ovcar8, Skov3); assay: LC-MS/MS metabolite profiling of ovarian cancer cell lines; format: cell-based; settings: 2.5 μM cisplatin or 0.5 μM doxorubicin, 24 hours
Protocol: We treated four different human ovarian cancer cell lines with 2.5 μM cisplatin or 0.5 μM doxorubicin for 24 hours and harvested polar metabolites. The samples were profiled using LC-MS/MS for 303 endogenous metabolites. As in breast cancer cells, we observed increases in pyrimidine metabolites (FIGS. 7A-D).

[6] = test system: de novo pyrimidine synthesis pathway in SUM-159PT cells; assay: Isotope labeling with L-glutamine (amide-15N), flux through de novo pyrimidine synthesis; format: cell-based; settings: 0.5 μM doxorubicin, 4 hours, then 1 hour labeling
Protocol: Isotope labeling: Ham's F12 medium lacking glutamine (Sigma-Aldrich) was supplemented with 100 μM L-glutamine (amide-^15N). SUM-159PT cells were treated with doxorubicin for 4 hours, at which point medium containing doxorubicin was aspirated and labeled medium was added to the cells. After 1 hour of labeling, cellular metabolites were extracted as described above and quantified using SRM on a 5500 QTRAP mass spectrometer using a protocol to detect ^15N-labelled isotopologues of metabolites in the de novo pyrimidine synthesis pathway.

[7] = test system: MDA-MB-231 xenograft tumors; assay: LC-MS/MS metabolomics profiling of MDA-MB-231 xenograft tumors; format: in vivo, nude mice; settings: 1 mg/kg doxorubicin, 24 hours, versus vehicle-treated tumors
Protocol: (§3) LC-MS/MS metabolomics profiling: For in vitro studies, SUM-159PT cells were maintained in full growth medium, and fresh medium was added at the time cells were treated with doxorubicin. For metabolite extraction, medium from biological triplicates was aspirated and ice-cold 80% (v/v) methanol was added. Cells and the metabolite-containing supernatants were collected and the insoluble material in lysates was pelleted by centrifugation at 10,000 g for 10 min. The resulting supernatant was evaporated using a refridgerated SpeedVac. For in vivo studies, ice-cold 80% (v/v) methanol was added to flash-frozen tumor tissue. Tissue was homogenized using a TissueLyser (Qiagen). The insoluble material was pelleted by centrifugation at 10,000 g for 10 min. The resulting supernatant was evaporated using a refridgerated SpeedVac. Samples were re-suspended using 20 μl HPLC-grade water for mass spectrometry. Ten microlitres was injected and analysed using a 5500 QTRAP hybrid triple quadrupole mass spectrometer (AB/SCIEX) coupled to a Prominence UFLC HPLC system (Shimadzu) with selected reaction monitoring (SRM). Peak areas from the total ion current for each metabolite SRM transition were integrated using MultiQuant v2.0 software (AB/SCIEX). Data analysis was performed using MetaboAnalyst.

[8] = test system: p-H2A.X (Ser139) in SUM-159PT cells; assay: H2A.X phosphorylation (DNA damage) by immunoblotting and immunofluorescence; format: cell-based; settings: 0.5 μM doxorubicin, 10 hours
Protocol: as §2
Immunofluorescence: Cells plated on coverslips were fixed with 2% paraformaldehyde for 10 minutes, permeabilized with 0.5% Triton X-100, and blocked with 1% BSA in 20 mmol/L Tris-HCl, pH 7.5, for 20 minutes. Coverslips were then incubated with Alexa Fluor® 647—conjugated anti-phospho H2A.X 5139 antibody (1:100) for 3 hours. […] Images of cells were acquired using a fluorescence microscope (Nikon Eclipse Ti) and digital image analysis software (NIS-Elements, Nikon).

[9] = test system: CAD phosphorylation in TNBC cell lines (HCC1143, MDA-MB-468, CAL-51 and MDA-MB-231); assay: Immunoblotting of CAD phosphorylation in additional TNBC cell lines; format: cell-based; settings: 0.5 μM doxorubicin, 4 hours; HCC1143, MDA-MB-468, CAL51, MDA-MB-231
Protocol: as §2

[10] = test system: TNBC cell lines (HCC1143, MDA-MB-468, CAL51 and MDA-MB-231); assay: Fluorescence-based deoxyribonucleoside triphosphate assay in additional TNBC cell lines; settings: 0.5 μM doxorubicin, 10 hours; HCC1143, MDA-MB-468, CAL51, MDA-MB-231
Protocol: as §1

SUM-159PT cells [11] = assay: Mitochondrial respiration (oxygen consumption rate, Seahorse analyzer); format: cell-based
Protocol: Mitochondrial respiration: Mitochondrial respiration was assessed using the Seahorse XFe-96 Analyzer (Seahorse Bioscience). SUM-159PT cells (50,000 cells per well) were treated with vehicle control, 0.5 μM Doxorubicin, 20 μM A771726, or the combination (A771726 & Doxorubicin) for 4 hours in normal media conditions. Following this incubation, media was changed to a non-buffered, serum-free Seahorse Media (Seahorse Bioscience, Catalog #102353) supplemented with 5 mM glucose, 2 mM L-glutamine, and 1 mM sodium pyruvate, and the oxygen consumption rate (OCR) was measured. In addition, OCR was measured for 30 minutes upon drug treatment and cells were subsequently challenged with either 1 μM Oligomycin or 0.5 μM Antimycin A to assess their effect on mitochondrial respiration. All experiments were normalized to cell number.

SUM-159PT cells [12] = assay: LC-MS/MS metabolomics profiling of SUM-159PT cells; format: cell-based; settings: 0.5 μM doxorubicin, 10 hours, versus vehicle
Protocol: as §3

[13] = test system: MDA-MB-231 tumor xenografts; assay: MDA-MB-231 xenograft combination therapy study (tumor volume); format: in vivo, nude mice; settings: for growth of MDA-MB-231 tumor xenografts (tumor volume): leflunomide 7.5 mg/kg i.p., doxorubicin 1 mg/kg i.p., 28 days
Protocol: Xenograft studies: Female nude mice (6 weeks old) were purchased from Taconic and maintained and treated under specific pathogen-free conditions. All procedures were approved by the Institutional Animal Care and Use Committee at Beth Israel Deaconess Medical Center (BIDMC) and conform to the federal guidelines for the care and maintenance of laboratory animals. The mice were injected subcutaneously with 4×10^6 MDA-MB-231 cells in medium containing 50% growth-factor-reduced, phenol red-free Matrigel (Corning). Tumor formation was examined every two to three days for the duration of the experiment. […] Tumors were collected and flash-frozen 24 hours after animals were exposed to vehicle or doxorubicin. […] Leflunomide (7.5 mg/kg) was administered on days 1-7, 10, 14, 17, 21 and 24 by i.p. injection. Doxorubicin (1 mg/kg) was administered on days 1, 7, 14 and 21 by i.p. injection. Mice were weighed on days 1, 7, 14, 21 and 28. Tumor volume was calculated using the following equation: Tumor volume=(π/6)(W^2)(L), where W represents width, and L represents length.

[14] = clinical use; cited from earlier work
tumor xenograft models = settings: single agent, references 22, 23; cited from earlier work
[15] = 40 μM PALA, 0.5 μM doxorubicin 10 hours

With `O=C(O)C[C@H](NC(=O)CP(=O)(O)O)C(=O)O` [PALA, N-(phosphonacetyl)-L-aspartate] the “effect on doxorubicin-induced alterations in dTTP levels” value (SUM-159PT cells [1]; [15]) was “did not inhibit”, the “effect on increase in dCTP levels induced by doxorubicin” value (SUM-159PT cells [1]; [15]) was “effectively abrogated” and the “single-agent activity (percentage of dead cells)” value (SUM-159PT cells [2]) was “minimal single-agent activity”. For the same compound, the “sensitization of SUM-159PT cells to doxorubicin (percentage of dead cells)” value (SUM-159PT cells [2]; then doxorubicin 48 hours) was “dramatically sensitized”.

With `N#CC(=C(/N)Sc1ccccc1N)/C(C#N)=C(\N)Sc1ccccc1N` [U0126] the “effect on doxorubicin-induced CAD Thr456 phosphorylation” value ([3]; 5 μM U0126 pre-treatment 12 hours, then 0.5 μM doxorubicin 4 hours) was “blocked” and the “effect on increase in pyrimidine nucleotides following doxorubicin exposure” value (SUM-159PT cells [1]; 5 μM U0126, 0.5 μM doxorubicin 10 hours) was “effectively suppressed”.

In the case of `Cc1c(-c2ccc(-c3ccccc3F)cc2)nc2ccc(F)cc2c1C(=O)O` [brequinar], the “sensitization of ovarian cancer cells to doxorubicin (viability)” value [4] is reported as “sensitized”, the “single-agent activity (percentage of dead cells)” value (SUM-159PT cells [2]) is reported as “minimal single-agent activity” and the “sensitization of SUM-159PT cells to doxorubicin (percentage of dead cells)” value (SUM-159PT cells [2]; then doxorubicin 48 hours) is reported as “dramatically sensitized”.

With `N.N.[Cl][Pt][Cl]` [cisplatin] the “pyrimidine metabolite abundance, LC-MS/MS” value [5] was “increases” and the “dCTP and dTTP (pyrimidine nucleoside triphosphate) levels, fluorescence-based assay” value (SUM-159PT cells [1]) was “Elevated levels”.

In the case of `COc1cccc2c1C(=O)c1c(O)c3c(c(O)c1C2=O)C[C@@](O)(C(=O)CO)C[C@@H]3O[C@H]1C[C@H](N)[C@H](O)[C@H](C)O1` [doxorubicin], the “pyrimidine metabolite abundance, LC-MS/MS” value [5] is reported as “increases”, the ERK1/2 phosphorylation ([3]; 0.5 μM doxorubicin) is reported as “increase” and the “phosphorylation state of CAD at the S6K1 site (Ser1859)” value ([3]; 0.5 μM doxorubicin) is reported as “no measurable changes”. For the same compound, the “phosphorylation state of S6K1” value ([3]; 0.5 μM doxorubicin) was “no measurable changes”, the “phosphorylation of CAD at the ERK site (Thr456)” value ([3]; 0.5 μM doxorubicin, within two hours) was “striking increase” and the “incorporation of 15N-glutamine label into N-carbamoyl-aspartate” value [6] was “significant increase”. For the same compound, the “abundance of pyrimidine nucleotide species in tumors, LC-MS/MS” value [7] was “significant increase”, the “DNA damage (histone H2A.X phosphorylation)” value [8] was “effectively induced DNA damage” and the “dCTP and dTTP (pyrimidine nucleoside triphosphate) levels, fluorescence-based assay” value (SUM-159PT cells [1]) was “robustly increased”. For the same compound, the “CAD Ser1859 phosphorylation” value [9] was “No changes”, the “CAD Thr456 phosphorylation” value [9] was “stimulated” and the “abundance of dCTP and dTTP” value [10] was “increased the abundance”. For the same compound, the “oxygen consumption rate (OCR)” value (SUM-159PT cells [11]; 0.5 μM doxorubicin or 20 μM A771726, 4 hours, 50,000 SUM-159PT cells) was “negligible effect”, the “sensitivity of OCR to oligomycin and antimycin” value (SUM-159PT cells [11]; 0.5 μM doxorubicin, 1 μM oligomycin, 0.5 μM Antimycin A) was “did not affect sensitivity” and the “cell viability (percentage of dead cells)” value (SUM-159PT cells [2]; 0.5 μM doxorubicin alone, 48 hours, SUM-159PT) was “negligible effects on cell viability”. For the same compound, the “abundance of purine nucleotide species, LC-MS/MS” value (SUM-159PT cells [12]) was “elevated”, the “abundance of pyrimidine nucleotide species, LC-MS/MS” value (SUM-159PT cells [12]) was “increased the abundance of the majority of pyrimidine nucleotide species” and the “increase in deoxycytidine triphosphate (dCTP) level, LC-MS/MS” value (SUM-159PT cells [12]) was “greater than 2 fold”. For the same compound, the “increase in deoxythymidine triphosphate (dTTP) level, LC-MS/MS” value (SUM-159PT cells [12]) was “greater than 2 fold” and the “growth of MDA-MB-231 tumor xenografts (tumor volume)” value [13] was “cytostatic”.

For `Cc1oncc1C(=O)Nc1ccc(C(F)(F)F)cc1` [leflunomide], the tolerability in humans [14] is given as “well tolerated”, the “anti-tumor activity in tumor xenograft models” value (tumor xenograft models) is given as “anti-tumor activity” and the “growth of MDA-MB-231 tumor xenografts (tumor volume)” value [13] is given as “did not significantly affect”. For the same compound, the “sensitization of MDA-MB-231 xenograft tumors to doxorubicin” value ([13]; leflunomide with doxorubicin 1 mg/kg) was “drastically sensitizes”.

With `O=c1ccn([C@@H]2O[C@H](CO)[C@@H](O)[C@H]2O)c(=O)[nH]1` [uridine] the “rescue: effect on efficacy of the A771726 plus doxorubicin combination treatment (percentage of dead cells)” value (SUM-159PT cells [2]; 100 μM uridine with 20 μM A771726 pre-treatment 12 hours, then doxorubicin 48 hours) was “completely blocked”.
